Molecular target: PRMT5 (Homo sapiens (Human), UniProt O14744)
Experiment: Inhibitory activity against PRMT5 enzyme by radioisotopic method
Format: biochemical
Conditions: PRMT5 5 nM, [3H]-SAM 0.3 μM, polypeptide substrate GL-27 100 nM, room temperature
Description: Test Example 1. Test on the inhibitory activity of the compounds of the invention against PRMT5 enzyme by radioisotopic method
Test method: A 1× enzyme reaction buffer (10 mM Tris 8.0 (Sigma, Cat. No. T2694-1L), 0.01% Tween-20 (Sigma, Cat. No. P2287-100 ML), 1 mM DTT (Sigma, Cat. No. D0632-10G)) was prepared. PRMT5 (Active Motif, Cat. No. 31921) and [3H]—SAM (PerkinElmer, Cat. No. NET155V001MC) were added to the 1×enzyme reaction buffer, to prepare a 25/15× mixed solution (PRMT5 final concentration: 5 nM, [3H]—SAM final concentration: 0.3 μM). 15 μL of this solution was transferred into a 384-well microplate (Corning 384-well Polypropylene Storage Microplates, Cat. No. 3657) with various concentrations of the compounds (DMSO final concentration 1%), and incubated at room temperature for 60 minutes. A polypeptide substrate, GL-27 (Ac-[…]-K (Biotin) (GL Biochem, Cat. No. 342095)), was added into the 1×enzyme reaction buffer to prepare a 25/10× substrate solution. Then 10 μL of the polypeptide substrate solution (final concentration of the polypeptide substrate: 100 nM) was added, a reaction was stirred at room temperature for 120 minutes, and then 5 μL 6× ice cold SAM (Sigma, Cat. No. A7007-100 MG) solution was added to stop the reaction (SAM final concentration: 0.125 mM). 25 µL of the reaction mixture was transferred into a FlashPlate (Streptavidin FlashPlate HTS PLUS, High Capacity, 384-well, Perkin Elmer, Cat. No. SMP410A001PK), and incubated at room temperature for 1 h. After washed three times with distilled water containing 0.1% Tween-20, the microplate was read on a MicroBeta reader for CPM data (Counts Per Minute). […] Then the inhibition rate Inh % (Y) corresponding to each concentration (X) was input in EXCEL, and the IC50 value (the half maximal inhibitory concentration) of each compound was calculated with the XLfit plug-in according to the built-in four-parameter fitting equation Y=Bottom+(Top-Bottom)/(1+(IC50/X)[…]).

Sequence of PRMT5 (O14744 whole entry): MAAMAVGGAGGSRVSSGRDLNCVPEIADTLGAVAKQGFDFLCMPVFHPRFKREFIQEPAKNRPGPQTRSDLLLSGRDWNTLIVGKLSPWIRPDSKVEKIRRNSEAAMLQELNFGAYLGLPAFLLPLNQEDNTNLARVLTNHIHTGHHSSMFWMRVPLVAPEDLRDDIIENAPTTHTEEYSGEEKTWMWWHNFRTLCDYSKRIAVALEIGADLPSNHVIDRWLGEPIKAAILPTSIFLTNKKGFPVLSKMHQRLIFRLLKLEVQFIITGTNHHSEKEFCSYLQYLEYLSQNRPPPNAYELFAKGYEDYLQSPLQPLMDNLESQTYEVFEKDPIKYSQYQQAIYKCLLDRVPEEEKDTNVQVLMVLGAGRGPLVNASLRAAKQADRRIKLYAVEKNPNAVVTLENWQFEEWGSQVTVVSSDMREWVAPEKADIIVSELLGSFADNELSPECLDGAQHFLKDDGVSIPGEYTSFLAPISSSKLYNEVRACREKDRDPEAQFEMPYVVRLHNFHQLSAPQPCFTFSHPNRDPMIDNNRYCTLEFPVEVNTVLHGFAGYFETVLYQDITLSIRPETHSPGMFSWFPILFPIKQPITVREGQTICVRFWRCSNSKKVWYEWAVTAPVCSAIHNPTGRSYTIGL
Sequence of PRMT5 (Q9BQA1 whole entry partner): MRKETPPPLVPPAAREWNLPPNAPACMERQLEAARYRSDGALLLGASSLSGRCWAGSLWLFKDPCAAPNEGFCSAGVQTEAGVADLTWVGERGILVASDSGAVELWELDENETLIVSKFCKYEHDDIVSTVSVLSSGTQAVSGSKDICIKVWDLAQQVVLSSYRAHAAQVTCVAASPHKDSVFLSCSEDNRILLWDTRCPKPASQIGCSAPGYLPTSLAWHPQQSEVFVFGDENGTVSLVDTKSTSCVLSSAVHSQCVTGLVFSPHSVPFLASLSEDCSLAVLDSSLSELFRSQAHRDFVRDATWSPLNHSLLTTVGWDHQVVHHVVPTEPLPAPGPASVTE

| Structure (SMILES) | IC50 [nM] |
| --- | --- |
| O[C@@H]1CN(c2cc(Nc3ccccc3N3CCCC3)ncn2)CC[C@H]1N1CCc2ccccc2C1 (relative stereo) [Example 80, trans-4-(3,4-dihydroisoquinolin-2(1H)-yl)-1-(6-((2-(pyrrolidin-1-yl)phenyl)amino)pyrimidin-4-yl)piperidin-3-ol] | < 100 |
| O[C@H]1CN(c2cc(Nc3ccccc3OC(F)(F)F)ncn2)CC[C@@H]1N1CCc2ccccc2C1 (relative stereo) [Example 84, trans-4-(3,4-dihydroisoquinolin-2(1H)-yl)-1-(6-((2-(trifluoromethoxy)-phenyl)amino)pyrimidin-4-yl)piperidin-3-ol] | < 100 |
| O[C@@H]1CN(c2cc(Nc3cccc(F)c3F)ncn2)CC[C@H]1N1CCc2ccccc2C1 (relative stereo) [Example 87, trans-1-(6-((2,3-difluorophenyl)amino)pyrimidin-4-yl)-4-(3,4-dihydroisoquinolin-2(1H)-yl)piperidin-3-ol] | < 100 |
| COc1c(F)cccc1Nc1cc(N2CC[C@@H](N3CCc4ccccc4C3)[C@H](O)C2)ncn1 (relative stereo) [Example 88, trans-1-(6-((3-fluoro-2-methoxyphenyl)amino)pyrimidin-4-yl)-4-(3,4-dihydroisoquinolin-2(1H)-yl)piperidin-3-ol] | < 100 |
| CCOc1ccccc1Nc1cc(N2CC[C@@H](N3CCc4ccccc4C3)[C@H](O)C2)ncn1 (relative stereo) [Example 90, trans-1-(6-((2-ethoxyphenyl)amino)pyrimidin-4-yl)-4-(3,4-dihydroisoquinolin-2(1H)-yl)piperidin-3-ol] | < 100 |
| O[C@@H]1CN(c2cc(Nc3ccccc3OCC(F)(F)F)ncn2)CC[C@H]1N1CCc2ccccc2C1 (relative stereo) [Example 91, trans-1-(6-((2-(2,2,2-trifluoroethoxy)phenyl)amino)pyrimidin-4-yl)-4-(3,4-dihydroisoquinolin-2(1H)-yl)piperidin-3-ol] | < 100 |
| COc1ccc(F)cc1Nc1cc(N2CC[C@@H](N3CCc4ccccc4C3)[C@H](O)C2)ncn1 (relative stereo) [Example 92, trans-1-(6-((5-fluoro-2-methoxyphenyl)amino)pyrimidin-4-yl)-4-(3,4-dihydroisoquinolin-2(1H)-yl)piperidin-3-ol] | < 100 |
| COc1cc(F)ccc1Nc1cc(N2CC[C@H](N3CCc4ccccc4C3)[C@@H](O)C2)ncn1 (relative stereo) [Example 93, trans-4-(3,4-dihydroisoquinolin-2(1H)-yl)-1-(6-((4-fluoro-2-methoxyphenyl)amino)pyrimidin-4-yl)piperidin-3-ol] | < 100 |
| O[C@H]1CN(c2cc(Nc3cccc4c3OCCO4)ncn2)CC[C@@H]1N1CCc2ccccc2C1 (relative stereo) [Example 94, trans-1-(6-((2,3-dihydrobenzo[b][1,4]dioxin-5-yl)amino)pyrimidin-4-yl)-4-(3,4-dihydroisoquinolin-2(1H)-yl)piperidin-3-ol] | < 100 |
| O[C@@H]1CN(c2cc(Nc3ccc(N4CCCC4)cc3)ncn2)CC[C@H]1N1CCc2ccccc2C1 (relative stereo) [Example 95, trans-4-(3,4-dihydroisoquinolin-2(1H)-yl)-1-(6-((4-(pyrrolidin-1-yl)phenyl)amino)pyrimidin-4-yl)piperidin-3-ol] | < 100 |
| CC(=O)N1CCC(Nc2cc(C(=O)N3CC[C@H](N4CCc5ccccc5C4)[C@@H](O)C3)c(C(F)(F)F)cn2)CC1 (relative stereo) [Example 102, trans-1-(4-((4-(4-(3,4-dihydroisoquinolin-2(1H)-yl)-3-hydroxypiperidine-1-carbonyl)-5-(trifluoromethyl)pyridin-2-yl)amino)piperidin-1-yl)ethan-1-one] | < 100 |
| CC(=O)N1CCC(Nc2cc(C(=O)N3CC[C@H](N4CCc5ccccc5C4)[C@@H](O)C3)nc(C)n2)CC1 (relative stereo) [Example 111, trans-1-(4-((6-(4-(3,4-dihydroisoquinolin-2(1H)-yl)-3-hydroxypiperidine-1-carbonyl)-2-methylpyrimidin-4-yl)amino)piperidin-1-yl)ethan-1-one] | < 100 |
| CC(=O)N1CCC(Nc2cc(C(=O)N3CC[C@H](N4CCc5ccccc5C4)[C@@H](O)C3)nc(N(C)C)n2)CC1 (relative stereo) [Example 118, trans-1-(4-((6-(4-(3,4-dihydroisoquinolin-2(1H)-yl)-3-hydroxypiperidine-1-carbonyl)-2-(dimethylamino)pyrimidin-4-yl)amino)piperidin-1-yl)ethan-1-one] | < 100 |
| CC(=O)N1CCC(Sc2cc(C(=O)N3CC[C@H](N4CCc5ccccc5C4)[C@@H](O)C3)ncn2)CC1 (relative stereo) [Example 119, trans-1-(4-((6-(4-(3,4-dihydroisoquinolin-2(1H)-yl)-3-hydroxypiperidine-1-carbonyl)pyrimidin-4-yl)thio)piperidin-1-yl)ethan-1-one] | < 100 |
| COc1nc(NC2CCN(C(C)=O)CC2)cc(C(=O)N2CC[C@H](N3CCc4ccccc4C3)[C@@H](O)C2)n1 (relative stereo) [Example 120, 1-(4-((6-(trans-4-(3,4-dihydroisoquinolin-2(1H)-yl)-3-hydroxypiperidine-1-carbonyl)-2-methoxypyrimidin-4-yl)amino)piperidin-1-yl)ethan-1-one] | < 100 |

Next, values leading:

| IC50 [nM] | Structure (SMILES) |
| --- | --- |
| < 100 | O=C(C(=O)N1CCC2(CC1)CC(Nc1cc(C(=O)N3CC[C@H](N4CCc5ccccc5C4)[C@@H](O)C3)ncn1)C2)C1CC1 (relative stereo) [Example 98, 1-cyclopropyl-2-(2-((6-(trans-4-(3,4-dihydroisoquinolin-2(1H)-yl)-3-hydroxypiperidine-1-carbonyl)pyrimidin-4-yl)amino)-7-azaspiro[3.5]nonan-7-yl)ethane-1,2-dione] |
| < 100 | O=C(C(=O)N1CCC(Nc2cc(C(=O)N3CC[C@H](N4CCc5ccccc5C4)[C@@H](O)C3)ncn2)CC1)C1CC1 (relative stereo) [Example 99, trans-1-cyclopropyl-2-(4-((6-(4-(3,4-dihydroisoquinolin-2(1H)-yl)-3-hydroxypiperidine-1-carbonyl)pyrimidin-4-yl)amino)piperidin-1-yl)ethane-1,2-dione] |
| < 100 | CC(=O)N1CCCC(Nc2cc(C(=O)N3CC[C@H](N4CCc5ccccc5C4)[C@@H](O)C3)ncn2)C1 (relative stereo) [Example 106, trans-1-(3-((6-(4-(3,4-dihydroisoquinolin-2(1H)-yl)-3-hydroxypiperidine-1-carbonyl)pyrimidin-4-yl)amino)piperidin-1-yl)ethan-1-one] |
| < 100 | CC(C)(C)OC(=O)N1CCC(Nc2cc(C(=O)N3CC[C@H](N4CCc5ccccc5C4)[C@@H](O)C3)ncn2)CC1 (relative stereo) [Example 110, t-butyl trans-4-((6-(4-(3,4-dihydroisoquinolin-2(1H)-yl)-3-hydroxypiperidine-1-carbonyl)pyrimidin-4-yl)amino)piperidine-1-carboxylate] |
| < 100 | COCC(=O)N1CCC(Nc2cc(C(=O)N3CC[C@H](N4CCc5ccccc5C4)[C@@H](O)C3)ncn2)CC1 (relative stereo) [Example 113, 1-(4-((6-(trans-4-(3,4-dihydroisoquinolin-2(1H)-yl)-3-hydroxypiperidine-1-carbonyl)pyrimidin-4-yl)amino)piperidin-1-yl)-2-methoxyethan-1-one] |
| < 100 | CC(=O)N1CCC(CCNc2cc(C(=O)N3CC[C@H](N4CCc5ccccc5C4)[C@@H](O)C3)ncn2)CC1 (relative stereo) [Example 115, trans-1-(4-(2-((6-(4-(3,4-dihydroisoquinolin-2(1H)-yl)-3-hydroxy-piperidine-1-carbonyl)pyrimidin-4-yl)amino)ethyl)piperidin-1-yl)ethanone] |
| < 100 | O=C(c1cc(NC2CCN(C(=O)C3CC3)CC2)ncn1)N1CC[C@H](N2CCc3ccccc3C2)[C@@H](O)C1 (relative stereo) [Example 116, trans-(6-((1-(cyclopropanecarbonyl)piperidin-4-yl)amino)pyrimidin-4-yl)(4-(3,4-dihydroisoquinolin-2(1H)-yl)-3-hydroxypiperidin-1-yl)ketone] |
| < 100 | CC(=O)N1CCC(Nc2cc(C(=O)N3CC[C@H](N4CCc5ccccc5C4)[C@@H](O)C3)nc(Cl)n2)CC1 (relative stereo) [Example 117, trans-1-(4-((2-chloro-6-(4-(3,4-dihydroisoquinolin-2(1H)-yl)-3-hydroxypiperidine-1-carbonyl)pyrimidin-4-yl)amino)piperidin-1-yl)ethan-1-one] |

Reference: US20240336593A1, “Compound Having Antitumor Activity And Use Thereof” (lnnovStoneTherapeutics Limited, priority 2020, published 2024)
